Test results as given in patent US20080027014A1, “Novel SGLT inhibitors” (Tanabe Seiyaku Co., Ltd., priority 2006, published 2008).

Biological target: T1, human SGLT2 (Homo sapiens, UniProt P31639)
T1 construct: expressed in transfected cells; host or cells: CHOK1 cells (kept under Geneticin selection)
T1 sequence (P31639 1-672): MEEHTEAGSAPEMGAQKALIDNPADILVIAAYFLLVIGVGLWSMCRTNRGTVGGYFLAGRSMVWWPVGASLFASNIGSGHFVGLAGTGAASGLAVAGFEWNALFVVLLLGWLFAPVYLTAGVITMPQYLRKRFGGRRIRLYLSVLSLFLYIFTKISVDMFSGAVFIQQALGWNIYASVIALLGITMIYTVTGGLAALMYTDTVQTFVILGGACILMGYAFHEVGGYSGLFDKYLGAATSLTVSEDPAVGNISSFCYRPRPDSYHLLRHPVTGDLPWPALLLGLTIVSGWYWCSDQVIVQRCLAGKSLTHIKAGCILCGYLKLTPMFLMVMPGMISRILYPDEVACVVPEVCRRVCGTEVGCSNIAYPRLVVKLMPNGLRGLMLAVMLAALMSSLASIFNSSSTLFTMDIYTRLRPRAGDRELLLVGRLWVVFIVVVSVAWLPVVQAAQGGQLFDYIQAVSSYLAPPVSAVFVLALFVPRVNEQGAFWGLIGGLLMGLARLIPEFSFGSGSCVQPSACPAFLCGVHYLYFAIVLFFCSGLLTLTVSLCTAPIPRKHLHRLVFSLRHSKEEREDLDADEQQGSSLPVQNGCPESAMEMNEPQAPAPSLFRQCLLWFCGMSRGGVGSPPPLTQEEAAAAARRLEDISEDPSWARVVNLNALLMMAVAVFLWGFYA
Assay: Assay for SGLT2 inhibition (14C-AMG uptake in CHOK1 cells expressing human SGLT2)
Format: cell-based
Details: CHOK1 cells expressing human SGLT2, 14C-AMG uptake 0.5 mM, 2 hours at 37° C.
Experimental: 1. Assay for SGLT2 Inhibition
Compounds described in the above examples were used for the SGLT2 inhibition assay.
CHOK1 cells expressing human SGLT2 were seeded in 24-well plates at a density of 400,000 cells/well in F-12 nutrient mixture (Ham's F-12) containing 10% fetal bovine serum, 400 μg/ml Geneticin, 50 units/ml sodium penicillin G (Gibco-BRL) and 50 μg/ml streptomycin sulfate. After 2 days of culture at 37° C. in a humidified atmosphere containing 5% CO2, cells were washed once with the assay buffer (137 mM NaCl, 5 mM KCl, 1 mM CaCl2, 1 mM MgCl2, 50 mM Hepes, and 20 mM Tris, pH 7.4) and incubated with 250 μl of the buffer containing test compounds for 10 min at 37° C. Test compounds were dissolved in DMSO. The final concentration of DMSO was 0.5%. The transport reaction was initiated by addition of 50 μl [^14C]-methyl-α-D-glucopyranoside (^14C-AMG) solution (final concentration, 0.5 mM). After incubation for 2 hours at 37° C., the uptake was stopped by aspiration of the incubation mixture, the cells were washed three times with ice-cold PBS. Then, cells were solubilized with 0.3 N NaOH and aliquots were taken for determination of radioactivity by a liquid scintillation counter. Nonspecific AMG uptake was defined as that which occurred in the presence of 100 μM of phlorizin, a specific inhibitor of sodium-dependent glucose cotransporter. Specific uptake was normalized for the protein concentrations measured by the method of Bradford. The 50% inhibitory concentration (IC50) values were calculated from dose-response curves by least square method.

SMILES | IC50
CCc1ccc(Cc2cn([C@@H]3S[C@H](CO)[C@@H](O)[C@H](O)[C@H]3O)c3ccccc23)cc1 [Example 1, 3-(4-Ethylphenylmethyl)-1-(5-thio-β-D-glucopyranosyl)indole] | 180 nM
CCc1ccc(Cc2cn([C@@H]3S[C@H](CO)[C@@H](O)[C@H](O)[C@H]3O)c3cccc(Cl)c23)cc1 [Example 2, 4-Chloro-3-(4-ethylphenylmethyl)-1-(5-thio-β-D-glucopyranosyl)indole] | 21 nM
OC[C@H]1O[C@@H](c2ccc(Cl)c(Cc3cc4ccccc4s3)c2)[C@H](O)[C@@H](O)[C@H]1F [Example 5, 3-(Benzo[b]thiophen-2-ylmethyl)-4-chloro-1-(4-fluoro-4-deoxy-β-D-galactopyranosyl)benzene] | 5.3 nM
O[C@@H]1[C@@H](O)[C@H](c2ccc(Cl)c(Cc3ccc(-c4ccccc4)s3)c2)O[C@H](CF)[C@H]1O [Example 6, 4-Chloro-3-(5-phenyl-2-thienylmethyl)-1-(6-fluoro-6-deoxy-β-D-glucopyranosyl)benzene] | 31 nM
OC[C@H]1S[C@@H](n2cc(Cc3ccc4occc4c3)c3c(Cl)cccc32)[C@H](O)[C@@H](O)[C@@H]1O [Example 8] | 41 nM
CSc1ccc(Cc2cn([C@@H]3S[C@H](CO)[C@@H](O)[C@H](O)[C@H]3O)c3cccc(Cl)c23)cc1 [Example 10] | 22 nM
OC[C@H]1S[C@@H](n2cc(Cc3ccc(Cl)cc3)c3c(Cl)cccc32)[C@H](O)[C@@H](O)[C@@H]1O [Example 13] | 110 nM
OC[C@H]1S[C@@H](n2cc(Cc3ccc(Br)cc3)c3c(Cl)cccc32)[C@H](O)[C@@H](O)[C@@H]1O [Example 14] | 97 nM
COc1ccc(Cc2cn([C@@H]3S[C@H](CO)[C@@H](O)[C@H](O)[C@H]3O)c3cccc(Cl)c23)cc1 [Example 15] | 15 nM
OC[C@H]1S[C@@H](n2cc(Cc3ccc4ccccc4c3)c3c(Cl)cccc32)[C@H](O)[C@@H](O)[C@@H]1O [Example 16] | 130 nM
OC[C@H]1S[C@@H](n2cc(Cc3ccc(I)cc3)c3c(F)cccc32)[C@H](O)[C@@H](O)[C@@H]1O [Example 17] | 63 nM
OC[C@H]1S[C@@H](n2cc(Cc3ccc4occc4c3)c3c(F)cccc32)[C@H](O)[C@@H](O)[C@@H]1O [Example 18] | 190 nM
CCOc1ccc(Cc2cn([C@@H]3S[C@H](CO)[C@@H](O)[C@H](O)[C@H]3O)c3cccc(C)c23)cc1 [Example 19] | 46 nM
Cc1cccc2c1c(Cc1ccc(Cl)cc1)cn2[C@@H]1S[C@H](CO)[C@@H](O)[C@H](O)[C@H]1O [Example 20] | 180 nM
N#Cc1cccc(-c2ccc(Cc3cn([C@@H]4S[C@H](CO)[C@@H](O)[C@H](O)[C@H]4O)c4cccc(Cl)c34)s2)c1 [Example 22] | 210 nM
OC[C@H]1S[C@@H](n2cc(Cc3ccc(Br)s3)c3c(Cl)cccc32)[C@H](O)[C@@H](O)[C@@H]1O [Example 23] | 170 nM
CCc1ccc(Cc2cn([C@@H]3S[C@H](CO)[C@@H](O)[C@H](O)[C@H]3O)c3cccc(Cl)c23)s1 [Example 25] | 67 nM
OC[C@H]1S[C@@H](n2cc(Cc3ccc(-c4ccc(F)nc4)s3)c3c(Cl)cccc32)[C@H](O)[C@@H](O)[C@@H]1O [Example 26] | 190 nM
Cc1cccc2c1c(Cc1ccc(C3CC3)cc1)cn2[C@@H]1S[C@H](CO)[C@@H](O)[C@H](O)[C@H]1O [Example 28] | 19 nM
OC[C@H]1S[C@@H](n2cc(Cc3ccc(OC(F)F)cc3)c3c(Cl)cccc32)[C@H](O)[C@@H](O)[C@@H]1O [Example 30] | 54 nM
OC[C@H]1S[C@@H](n2cc(Cc3ccc(-c4cccs4)cc3)c3c(F)cccc32)[C@H](O)[C@@H](O)[C@@H]1O [Example 31] | 150 nM
OC[C@H]1S[C@@H](n2cc(Cc3ccc(-c4ccccn4)s3)c3c(Cl)cccc32)[C@H](O)[C@@H](O)[C@@H]1O [Example 33] | 10 nM
OC[C@H]1S[C@@H](n2cc(Cc3ccc(C(F)F)cc3)c3c(Cl)cccc32)[C@H](O)[C@@H](O)[C@@H]1O [Example 34] | 35 nM
OC[C@H]1O[C@@H](c2ccc(Cl)c(Cc3cc4ccccc4s3)c2)[C@H](O)[C@@H](O)[C@H]1O [Example 35] | 17 nM
CCc1ccc(Cc2cn([C@@H]3O[C@H](CO)[C@@H](F)[C@H](O)[C@H]3O)c3ncccc23)cc1 [Example 36] | 120 nM

Test system: male Sprague-Dawley (SD) rats
Assay: Urinary glucose excretion test in rats
Format: in vivo, rat
Details: 30 mg/kg by oral gavage, urine collected for 24 hours, daily amount of glucose excreted per individual
Experimental: 2. Urinary Glucose Excretion Test in Rats
Compounds described in the above examples were used for the Urinary glucose excretion test in rats.
6-week-old male Sprague-Dawley (SD) rats were housed in individual metabolic cages with free access to food and water from 2 days prior to the experiment. On the morning of the experiment, rats were administered vehicle (0.2% carboxymethyl cellulose solution containing 0.2% Tween80) or test compounds (30 mg/kg) by oral gavage at a volume of 10 ml/kg. Then, urine of the rat was collected for 24 hours, and the urine volume was measured. Subsequently, the glucose concentration in urine was quantified using the enzymatic assay kit and the daily amount of glucose excreted in urine per individual was calculated.

SMILES | Urinary glucose
CCc1ccc(Cc2cn([C@@H]3S[C@H](CO)[C@@H](O)[C@H](O)[C@H]3O)c3cccc(Cl)c23)cc1 [Example 2, 4-Chloro-3-(4-ethylphenylmethyl)-1-(5-thio-β-D-glucopyranosyl)indole] | B (2400 mg>B≧2000 mg)
OC[C@H]1O[C@@H](c2ccc(Cl)c(Cc3cc4ccccc4s3)c2)[C@H](O)[C@@H](O)[C@H]1F [Example 5, 3-(Benzo[b]thiophen-2-ylmethyl)-4-chloro-1-(4-fluoro-4-deoxy-β-D-galactopyranosyl)benzene] | A (A≧2400 mg)

Test system: diabetic animal models
Assay: not given
Details: continuous subcutaneous administration; cited from earlier work

SMILES | blood glucose level
O=C(CCc1ccc(O)cc1)c1c(O)cc(O)cc1O[C@@H]1O[C@H](CO)[C@@H](O)[C@H](O)[C@H]1O [phlorizin] | normalized

Test system: not given
Assay: not given
Details: not given

SMILES | melting point
OC[C@H]1O[C@@H](c2ccc(Cl)c(Cc3cc4ccccc4s3)c2)[C@H](O)[C@@H](O)[C@H]1F [Example 5, 3-(Benzo[b]thiophen-2-ylmethyl)-4-chloro-1-(4-fluoro-4-deoxy-β-D-galactopyranosyl)benzene] | 153 to 154 °C
